{
  "source": "patent US20250199015A1",
  "about": "“CYCLIN-DEPENDENT KINASE 2 INHIBITORS FOR MEDICAL TREATMENT” (INCYCLIX BIO, LLC, priority 2022, published 2025)",
  "key": {"[1]": {"tested_on": "H526 cells", "test": "CellTiter Glo cell proliferation assay (single agent and chemotherapy combination)", "assay_type": "cell-based, human", "procedure": "Plates returned to incubator for six additional days. On day six post dosing, plates were removed and treated with CellTiter Glo reagent following manufacturer's specifications. Plates incubated 45 minutes at room temperature and run on a Biotek luminometer with 1 sec/well detection. Results were converted to Microsoft Excel and transferred to GraphPad Prism for analysis.\nCells were plated at 250 cells per well in white wall/clear bottom plates and incubated overnight. […] Plates returned to the incubator for six additional days. On day six post dosing, plates were removed and treated with CellTiter Glo reagent following manufacturer's specifications. Plates incubated 45 minutes at room temperature and run on a Biotek luminometer with 1 sec/well detection. Results were converted to Microsoft Excel and transferred to GraphPad Prism for analysis.\n(§1) Dose curves ranged from 300 pM to 10 μM in triplicate and treatments lasted for 6 days. Plates were removed from incubator at each specified timepoint and treated with CellTiter-Glo (Promega, Inc) following manufacturer specifications. Plates were then read on CLARIOstar luminometer with 1 sec/well integration.\nas §1, with “integration. Results were converted to Microsoft Excel and transferred to GraphPad Prism for Analysis.” for “integration.”"}, "[2]": {"tested_on": "CCNE1, CCNE2, DNA damage markers in H69 cells", "test": "Western blot cell cycle and DNA damage proteins", "assay_type": "cell-based, human", "details": "24 hours", "procedure": "(§2) The H69 and H526 human lung carcinoma cell lines were grown in RPMI-1640/1× Glutamax/10% fetal bovine serum while the Hs68 Normal foreskin fibroblast cell line was grown in DMEM-high glucose/1× Glutamax/10% fetal bovine serum. […] Cells were collected by washing each well twice with cold PBS, then scraping cells in the presence of 150 μL cold RIPA with protease and phosphatase inhibitors. Lysates were clarified by centrifugation at 14,000×g for 10 min at 4° C. and supernatants transferred to clean tubes. A BCA assay was performed to determine the protein concentration of each lysate. A total of 30 μg of protein was mixed with sample buffer and reducing agent before being run on a 4-12% SDS-PAGE. Protein was transferred to a nitrocellulose membrane and blocked with LI-COR blocking buffer for 1 hour. Membranes were incubated overnight in primary antibody at 4° C. Following 3 washes with TBS-T, membranes were incubated for 45 minutes in LI-COR secondary antibodies. Following 2 washes in TBS-T, and one TBS wash, membranes were scanned using a LI-COR OdysseyCLx. Image studio was used for image analysis."}, "[3]": {"tested_on": "CCNE1, CCNE2, DNA damage markers in H526 cells", "test": "Western blot cell cycle and DNA damage proteins", "assay_type": "cell-based, human", "details": "24 hours", "procedure": "as §2"}, "[4]": {"tested_on": "pRb, p21, p27, phosphorylated CHK2 in MKN1 cells", "test": "Western blot pRb and cell cycle proteins", "assay_type": "cell-based, human", "details": "30-1000 nM, 24 hours", "procedure": "The MKN1 human stomach carcinoma cell line was grown in RPMI-1640/1× Glutamax/10% heat inactivate fetal bovine serum and was plated at 300,000 cells/well in Corning 6 well tissue culture treated plates. Cells were incubated at 37° C. for 24 hours prior to addition of 2 replicates of 0.1% DMSO control and 1 replicate for each treatment. […] Cells were collected by washing each well twice with cold PBS, then scraping cells in the presence of 150 μL cold RIPA with protease and phosphatase inhibitors. Lysates were clarified by centrifugation at 14,000×g for 10 min at 4° C. and supernatants transferred to clean tubes. A BCA assay was performed to determine the protein concentration of each lysate. A total of 30 μg of protein was mixed with sample buffer and reducing agent before being run on a 4-12% SDS-PAGE. Protein was transferred to a nitrocellulose membrane and blocked with LI-COR blocking buffer for 1 hr. Membranes were incubated overnight in primary antibody at 4° C. Following 3 washes with TBS-T, membranes were incubated for 45 minutes in LI-COR secondary antibodies. Following 2 washes in TBS-T, and one TBS wash, membranes were scanned using a LI-COR OdysseyCLx. Image studio was used for image analysis."}, "[5]": {"test": "GLP 28-day oral toxicity and toxicokinetics study", "assay_type": "in vivo, Beagle dogs", "details": "for AUC0-24 / AUC(0-t) / Cmax / Tmax: Beagle, po", "procedure": "Nominal dose values and sampling times were used for calculations. Any concentration reported as BLQ (LLOQ<1.0 ng/mL) was set equal to zero. Toxicokinetic analyses included Cmax, Tmax, AUC0-24, t1/2, RA Cmax, and RA AUC0-24. Forty (20 per sex) Beagle dogs were randomly assigned to groups and dosed twice daily (approximately 8 hours+1-hour apart) via oral gavage for 28 consecutive days.\nBased on the absence of dose-limiting toxicity, the 28-day highest nonseverely toxic dose (HNSTD) was 250 mg/kg BID (500 mg/kg/day)."}, "[6]": {"test": "Bidirectional permeability (A-B, B-A Papp)", "assay_type": "in vitro ADME"}, "[7]": {"details": "female, dog, in vivo, 20 mg/kg/day"}, "[8]": {"details": "female, dog, in vivo, 100 mg/kg/day"}, "[9]": {"details": "female, dog, in vivo, 500 mg/kg/day"}, "[10]": {"details": "male, dog, in vivo, 100 mg/kg/day"}, "[11]": {"details": "male, dog, in vivo, 500 mg/kg/day"}},
  "note": "Entries after “also recorded” stand apart in the source; their conditions may differ.",
  "data": [
    {"smiles": "NS(=O)(=O)c1ccc(Nc2ncc3cc4n(c3n2)C2(CCCCC2)C(=O)NN4)cc1", "note": "[Compound I]", "values": [
      {"measurement": "cellular proliferation IC50, combined with camptothecin, versus single agents", "setting": "[1]; 100 nM Compound I with camptothecin dose curve, 6 days", "result": "comparable"},
      {"measurement": "IC50", "setting": "[1]; Homo sapiens, NCI-H526, 144 h, six days", "result": 0.062, "unit": "µM"},
      {"measurement": "inhibition compared with palbociclib", "setting": "[1]; six days", "result": "low nanomolar concentrations"},
      {"measurement": "DNA damage markers", "setting": "[2]", "result": "No overt DNA damage marker changes"},
      {"measurement": "cyclin E (CCNE1, CCNE2) levels", "setting": "[2]", "result": "increase of cyclin E (CCNE1, CCNE2) amplification"},
      {"measurement": "DNA damage markers", "setting": "[3]", "result": "No overt DNA damage marker changes"},
      {"measurement": "cyclin E (CCNE1, CCNE2) levels", "setting": "[3]", "result": "increase of cyclin E (CCNE1, CCNE2) amplification"},
      {"measurement": "pRb levels", "setting": "[4]", "result": "dose-dependent response decrease in pRb levels"},
      {"measurement": "tolerability", "setting": "[5]; PO, up to 28 days, up to 250 mg/kg BID", "result": "generally well tolerated; also recorded: well tolerated with no dose-limiting toxicities observed"},
      {"measurement": "28-day NOAEL", "setting": "[5]; dog, in vivo", "result": "did not identify a 28-day NOAEL"},
      {"measurement": "accumulation after 28 days of BID dosing", "setting": "[5]; dog, in vivo", "result": "Modest accumulation"},
      {"measurement": "bone marrow cellularity", "setting": "[5]; dog, in vivo", "result": "moderately decreased bone marrow cellularity"},
      {"measurement": "AUC0-24", "setting": "[5]; [7]", "result": 1680, "unit": "ng·h/mL"},
      {"measurement": "AUC(0-t)", "setting": "[5]; female, dog, in vivo, 20 mg/kg/day, AUC0-24", "result": 2600, "unit": "ng·h/mL"},
      {"measurement": "Cmax", "setting": "[5]; female, dog, in vivo, 20 mg/kg/day, Cmax", "result": 267, "unit": "ng/mL"},
      {"measurement": "Tmax", "setting": "[5]; [7]", "result": 8.8, "unit": "h"},
      {"measurement": "AUC0-24", "setting": "[5]; [8]", "result": 5170, "unit": "ng·h/mL"},
      {"measurement": "AUC(0-t)", "setting": "[5]; female, dog, in vivo, 100 mg/kg/day, AUC0-24", "result": 9160, "unit": "ng·h/mL"},
      {"measurement": "Cmax", "setting": "[5]; female, dog, in vivo, 100 mg/kg/day, Cmax", "result": 725, "unit": "ng/mL"},
      {"measurement": "Tmax", "setting": "[5]; [8]", "result": 10, "unit": "h"},
      {"measurement": "AUC(0-t)", "setting": "[5]; female, dog, in vivo, 250 mg/kg, plasma AUC0-24", "result": 11700, "unit": "ng·h/mL"},
      {"measurement": "Cmax", "setting": "[5]; female, dog, in vivo, 250 mg/kg, plasma Cmax", "result": 961, "unit": "ng/mL"},
      {"measurement": "AUC0-24", "setting": "[5]; [9]", "result": 11700, "unit": "ng·h/mL"},
      {"measurement": "AUC(0-t)", "setting": "[5]; female, dog, in vivo, 500 mg/kg/day, AUC0-24", "result": 10100, "unit": "ng·h/mL"},
      {"measurement": "Cmax", "setting": "[5]; female, dog, in vivo, 500 mg/kg/day, Cmax", "result": 919, "unit": "ng/mL"},
      {"measurement": "Tmax", "setting": "[5]; [9]", "result": 14, "unit": "h"},
      {"measurement": "AUC(0-t)", "setting": "[5]; female, dog, in vivo, plasma AUC0-24", "result": 2600, "unit": "ng·h/mL"},
      {"measurement": "Cmax", "setting": "[5]; female, dog, in vivo, plasma Cmax", "result": 267, "unit": "ng/mL"},
      {"measurement": "AUC0-24", "setting": "[5]; male, dog, in vivo, 20 mg/kg/day", "result": 1430, "unit": "ng·h/mL"},
      {"measurement": "AUC(0-t)", "setting": "[5]; male, dog, in vivo, 20 mg/kg/day, AUC0-24", "result": 2460, "unit": "ng·h/mL"},
      {"measurement": "AUC0-24", "setting": "[5]; [10]", "result": 10600, "unit": "ng·h/mL"},
      {"measurement": "AUC(0-t)", "setting": "[5]; male, dog, in vivo, 100 mg/kg/day, AUC0-24", "result": 6210, "unit": "ng·h/mL"},
      {"measurement": "Cmax", "setting": "[5]; male, dog, in vivo, 100 mg/kg/day, Cmax", "result": 459, "unit": "ng/mL"},
      {"measurement": "Tmax", "setting": "[5]; [10]", "result": 12, "unit": "h"},
      {"measurement": "AUC(0-t)", "setting": "[5]; male, dog, in vivo, 250 mg/kg, plasma AUC0-24", "result": 18800, "unit": "ng·h/mL"},
      {"measurement": "Cmax", "setting": "[5]; male, dog, in vivo, 250 mg/kg, plasma Cmax", "result": 1500, "unit": "ng/mL"},
      {"measurement": "AUC0-24", "setting": "[5]; [11]", "result": 18800, "unit": "ng·h/mL"},
      {"measurement": "AUC(0-t)", "setting": "[5]; male, dog, in vivo, 500 mg/kg/day, AUC0-24", "result": 13300, "unit": "ng·h/mL"},
      {"measurement": "Cmax", "setting": "[5]; male, dog, in vivo, 500 mg/kg/day, Cmax", "result": 1220, "unit": "ng/mL"},
      {"measurement": "Tmax", "setting": "[5]; [11]", "result": 14, "unit": "h"},
      {"measurement": "AUC(0-t)", "setting": "[5]; male, dog, in vivo, plasma AUC0-24", "result": 2460, "unit": "ng·h/mL"},
      {"measurement": "Cmax", "setting": "[5]; male, dog, in vivo, plasma Cmax", "result": 307, "unit": "ng/mL"},
      {"measurement": "permeability", "setting": "[6]", "result": "moderate permeability"},
      {"measurement": "Papp A→B", "setting": "[6]; not told", "result": "3.28 to 6.67", "unit": "×10⁻⁶ cm/s"},
      {"measurement": "Papp B→A", "setting": "[6]; not told", "result": "42 to 68.3", "unit": "×10⁻⁶ cm/s"}
    ]}
  ]
}
